Measurements from patent US11168087B2, “Substituted imidazo[1,2-b]pyridazines, substituted imidazo[1,5-b]pyridazines, related compounds, and their use in the treatment of medical disorders” (BIAL—R&D Investments, S.A., priority 2016, dated 2021).
Values belong to the compound of their own block, whether it stands above or below them.

Target: T1, glucocerebrosidase (Gcase) (Homo sapiens, UniProt P04062)
T1 construct: micellar solution containing 10 nM GCase and 100 nM saposin C
T1 sequence (P04062 40-536): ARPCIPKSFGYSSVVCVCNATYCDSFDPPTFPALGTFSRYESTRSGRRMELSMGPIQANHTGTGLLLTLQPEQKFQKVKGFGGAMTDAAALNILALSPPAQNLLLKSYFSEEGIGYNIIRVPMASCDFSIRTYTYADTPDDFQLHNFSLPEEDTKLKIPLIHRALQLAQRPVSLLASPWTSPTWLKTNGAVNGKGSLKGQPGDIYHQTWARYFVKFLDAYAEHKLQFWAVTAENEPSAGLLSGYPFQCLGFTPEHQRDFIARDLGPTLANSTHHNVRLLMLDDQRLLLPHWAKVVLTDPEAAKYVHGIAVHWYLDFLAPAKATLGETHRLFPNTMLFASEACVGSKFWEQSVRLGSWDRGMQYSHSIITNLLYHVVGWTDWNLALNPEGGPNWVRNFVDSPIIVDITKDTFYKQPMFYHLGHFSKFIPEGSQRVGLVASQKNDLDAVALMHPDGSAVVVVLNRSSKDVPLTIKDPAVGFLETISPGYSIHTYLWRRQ
Assay: Glucocerebrosidase (Gcase) activation assay, 4-methylumbelliferyl-beta-D-glucopyranoside substrate, with saposin C
Assay type: biochemical
Details: 0.25 h; for activation at 0.1 µM: read-out: Percent Gcase Activation 0.1 μM Test Compound; for activation at 1 µM: read-out: Percent Gcase Activation 1 μM Test Compound
Experimental: The ability of exemplary compounds to activate glucocerebrosidase (Gcase) was measured.
A 484 μL aliquot of a 1.0 mg/mL solution of phosphatidylserine (PS) (Sigma P7769) in chloroform was evaporated under a stream of nitrogen for 1 hour. The lipid film was dissolved over 4 minutes of vigorous vortexing in 40 mL of 176 mM K2HPO4/50 mM citric acid (pH 4.7) containing 7.5 μL of triton X-100, resulting in a mixed micellar preparation with a composition of 0.32 mM triton and 0.37 mol % PS. 4-Methylumbelliferyl-beta-D-glucopyranoside (ACROS-337025000) was dissolved in the micellar solution to a final concentration of 2 mM for use as the reaction substrate.
Test compounds were diluted to the desired concentrations with dimethylsulfoxide (DMSO) from 10 mM stocks, and 0.41 μL of the DMSO compound mixture was added to 100 μL of micellar solution containing 10 nM GCase and 100 nM saposin C (Enzo ALX-201-262-C050). Pre-incubation was allowed to occur for 30 minutes at room temperature, after which the reaction was initiated by combining 25 μL of substrate solution with 25 μL of compound/GCase/saposin mixture. The reaction proceeded for 15 minutes at room temperature and was stopped by adding 150 μL of 1M glycine, pH 12.5. The endpoint of the reaction was monitored by measuring fluorescence intensity (excitation: 365 nm; emission: 440 nm) on a SpectraMax i3 instrument (Molecular Devices). Test compounds were screened at 1.0 and 0.1 μM final concentration, and subsequent 8-point dose response curves were obtained using 3-fold dilutions from a maximum final concentration of 5 μM.
The symbol “+” indicates less than 5% Gcase activation; the symbol “++” indicates Gcase activation in the range of 5% up to 20%; and the symbol “+++” indicates Gcase activation greater than 20%.

SMILES: Cc1cc(-c2ccc(F)cc2C#N)nn2c(C(=O)N[C@H](C)C(F)(F)F)cnc12
- activation at 0.1 µM: < 5%
- activation at 1 µM: 5 to 20%

SMILES: CCC(NC(=O)c1coc2c(C)cc(C)nc12)c1ccccc1 (stereo not drawn) [5,7-Dimethyl-N-(1-phenylpropyl)furo[3,2-b]pyridine-3-carboxamide]
- activation at 0.1 µM: > 20%
- activation at 1 µM: > 20%

SMILES: C#Cc1ccc(NC(=O)c2cnc3c(C)cc(C)nn23)cc1
- activation at 0.1 µM: 5 to 20%
- activation at 1 µM: > 20%

SMILES: CCCCCCOC1CCC(NC(=O)c2cnc3c(C)cc(Cl)nn23)CC1 (stereo not drawn)
- activation at 0.1 µM: 5 to 20%
- activation at 1 µM: > 20%

SMILES: O=C(NC1CCCc2ccccc21)c1cnc2ccc(Cl)nn12 (stereo not drawn)
- activation at 0.1 µM: < 5%
- activation at 1 µM: 5 to 20%

SMILES: Cc1cc(-c2cccc(Cl)n2)nn2c(C(=O)NC(C)C(F)(F)F)cnc12 (stereo not drawn)
- activation at 0.1 µM: 5 to 20%
- activation at 1 µM: > 20%

SMILES: Cc1cc(C)c2onc(C(=O)NC3CCCc4ccccc43)c2n1 (stereo not drawn) [5,7-Dimethyl-N-(1,2,3,4-tetrahydronaphthalen-1-yl)isoxazolo[4,5-b]pyridine-3-carboxamide]
- activation at 0.1 µM: 5 to 20%
- activation at 1 µM: > 20%

SMILES: C#Cc1ccc(NC(=O)c2cnc3ccc(Cl)nn23)cc1
- activation at 0.1 µM: 5 to 20%
- activation at 1 µM: 5 to 20%

SMILES: Cc1cc(-c2ccc(F)cc2)nn2c(C(=O)NC(C)(C)C3CC3)cnc12
- activation at 0.1 µM: 5 to 20%
- activation at 1 µM: > 20%

SMILES: Cc1cc(Cl)nn2c(C(=O)Nc3ccc4c(c3)CCC4)cnc12
- activation at 0.1 µM: 5 to 20%
- activation at 1 µM: > 20%

SMILES: Cc1cc(C)c2ncc(C(=O)Nc3ccc(-c4cocn4)cc3)n2n1
- activation at 0.1 µM: < 5%
- activation at 1 µM: > 20%

SMILES: Cc1cc(-c2cccc(C(N)=O)c2)nc2c(C(=O)NC(C3CC3)C(F)(F)F)csc12 (stereo not drawn)
- activation at 0.1 µM: > 20%
- activation at 1 µM: > 20%

SMILES: CCC(NC(=O)c1noc2c(C)cc(C)nc12)c1ccccc1 (stereo not drawn) [5,7-Dimethyl-N-(1-phenylpropyl)isoxazolo[4,5-b]pyridine-3-carboxamide]
- activation at 0.1 µM: 5 to 20%
- activation at 1 µM: > 20%

SMILES: COc1cccc(-c2cc(C)c3snc(C(=O)N[C@@H](C)C4CC4)c3n2)n1
- activation at 0.1 µM: < 5%
- activation at 1 µM: 5 to 20%

SMILES: COc1cccc(-c2cc(C)c3ncc(C(=O)NC(C4CC4)C4CC4)n3n2)c1
- activation at 0.1 µM: > 20%
- activation at 1 µM: > 20%

SMILES: Cc1cc(-c2cc(F)ccc2C#N)nn2c(C(=O)N[C@@H](C)C3CC3)cnc12 [(S)-6-(2-Cyano-5-fluorophenyl)-N-(1-cyclopropylethyl)-8-methylimidazo[1,2-b]pyridazine-3-carboxamide]
- activation at 0.1 µM: 5 to 20%
- activation at 1 µM: > 20%

SMILES: Cc1cc(C)c2ncc(C(=O)Nc3ccc4c(c3)CCC4)n2n1
- activation at 0.1 µM: 5 to 20%
- activation at 1 µM: > 20%

SMILES: CCC(NC(=O)c1cnc2cc(C)c(Cl)nn12)c1ccccc1 (stereo not drawn)
- activation at 0.1 µM: < 5%
- activation at 1 µM: 5 to 20%

SMILES: CCCCCO[C@H]1CC[C@H](NC(=O)c2noc3c(C)cc(C)nc23)CC1 [5,7-Dimethyl-N-((1R,4R)-4-(pentyloxy)cyclohexyl)isoxazolo[4,5-b]pyridine-3-carboxamide]
- activation at 0.1 µM: 5 to 20%
- activation at 1 µM: > 20%

SMILES: Cc1cc(-c2ccns2)nn2c(C(=O)NC(C)(C)C3CC3)cnc12
- activation at 0.1 µM: 5 to 20%
- activation at 1 µM: > 20%

SMILES: Cc1cc(-c2cccc(F)c2C#N)nn2c(C(=O)N[C@@H](C)C(F)(F)F)cnc12 [(S)-6-(2-Cyano-3-fluorophenyl)-8-methyl-N-(1,1,1-trifluoropropan-2-yl)imidazo[1,2-b]pyridazine-3-carboxamide]
- activation at 0.1 µM: 5 to 20%
- activation at 1 µM: > 20%

SMILES: Cc1cc(-c2cc(F)ccc2C#N)nn2c(C(=O)N[C@@H](C)C(F)(F)F)cnc12 [(S)-6-(2-Cyano-5-fluorophenyl)-8-methyl-N-(1,1,1-trifluoropropan-2-yl)imidazo[1,2-b]pyridazine-3-carboxamide]
- activation at 0.1 µM: 5 to 20%
- activation at 1 µM: > 20%

SMILES: Cc1cc(C)c2snc(C(=O)NC3CCCc4ccccc43)c2n1 (stereo not drawn) [5,7-Dimethyl-N-(1,2,3,4-tetrahydronaphthalen-1-yl)isothiazolo[4,5-b]pyridine-3-carboxamide]
- activation at 0.1 µM: > 20%
- activation at 1 µM: > 20%

Other lines, results leading:

- activation at 0.1 µM: 5 to 20%
- activation at 1 µM: > 20%
SMILES: Cc1cc(-c2ccc(F)cc2C#N)nn2c(C(=O)N[C@H](C3CC3)C(F)(F)F)cnc12

- activation at 0.1 µM: < 5%
- activation at 1 µM: 5 to 20%
SMILES: Cc1cc(-c2cccc3ocnc23)nc2c(C(=O)NC(C3CC3)C(F)(F)F)nsc12 (stereo not drawn)

- activation at 0.1 µM: < 5%
- activation at 1 µM: > 20%
SMILES: CCC(NC(=O)c1ncc2c(C)cc(C)nn12)c1ccccc1 (stereo not drawn)

- activation at 0.1 µM: < 5%
- activation at 1 µM: > 20%
SMILES: Cc1cc(C)c2ncc(C(=O)NC(C3CC3)C(F)(F)F)n2n1 (stereo not drawn)

- activation at 0.1 µM: > 20%
- activation at 1 µM: > 20%
SMILES: Cc1cc(-c2cccnc2)nc2c(C(=O)NC(C3CC3)C(F)(F)F)csc12 (stereo not drawn)

- activation at 0.1 µM: > 20%
- activation at 1 µM: > 20%
SMILES: Cc1cc(-c2cccc(C#N)c2)nn2c(C(=O)NC(C3CC3)C(F)(F)F)cnc12 (stereo not drawn)

- activation at 0.1 µM: < 5%
- activation at 1 µM: 5 to 20%
SMILES: Cc1cc(C)c2ncc(C(=O)N[C@@H](C)C3CC3)n2n1

- activation at 0.1 µM: 5 to 20%
- activation at 1 µM: > 20%
SMILES: Cc1cc(-c2cccc3ocnc23)nn2c(C(=O)NC(C3CC3)C(F)(F)F)cnc12 (stereo not drawn)

- activation at 0.1 µM: 5 to 20%
- activation at 1 µM: > 20%
SMILES: COc1cncc(-c2cc(C)c3ncc(C(=O)N[C@@H](C4CC4)C(F)(F)F)n3n2)c1

- activation at 0.1 µM: > 20%
- activation at 1 µM: > 20%
SMILES: Cc1cc(-c2ccc3ocnc3c2)nn2c(C(=O)NC(C3CC3)C(F)(F)F)cnc12 (stereo not drawn)

- activation at 0.1 µM: < 5%
- activation at 1 µM: 5 to 20%
SMILES: Cc1cc(C)c2cnc(C(=O)N[C@@H](C)C3CC3)n2n1

- activation at 0.1 µM: > 20%
- activation at 1 µM: > 20%
SMILES: Cc1cc(N2CCC(F)(F)C2)nn2c(C(=O)NC(C3CC3)C(F)(F)F)cnc12 (stereo not drawn)

- activation at 0.1 µM: > 20%
- activation at 1 µM: > 20%
SMILES: Cc1cc(-c2cccc(F)c2)nn2c(C(=O)NC(C3CC3)C(F)(F)F)cnc12 (stereo not drawn)

- activation at 0.1 µM: 5 to 20%
- activation at 1 µM: > 20%
SMILES: Cc1cc(N2CCN(C(C)C)C2=O)nn2c(C(=O)N[C@@H](C3CC3)C(F)(F)F)ncc12 [(S)—N-(1-Cyclopropyl-2,2,2-trifluoroethyl)-2-(3-isopropyl-2-oxoimidazolidin-1-yl)-4-methylimidazo[1,5-b]pyridazine-7-carboxamide]

- activation at 0.1 µM: 5 to 20%
- activation at 1 µM: > 20%
SMILES: Cc1cc(-c2ccc(F)cc2)nn2c(C(=O)NC(C)C(F)(F)F)ncc12 (stereo not drawn)

- activation at 0.1 µM: > 20%
- activation at 1 µM: > 20%
SMILES: Cc1cc(-c2cccc(F)c2)nn2c(C(=O)N[C@@H](C3CC3)C(F)(F)F)ncc12 [(S)—N-(1-Cyclopropyl-2,2,2-trifluoroethyl)-2-(3-fluorophenyl)-4-methylimidazo[1,5-b]pyridazine-7-carboxamide]

- activation at 0.1 µM: 5 to 20%
- activation at 1 µM: > 20%
SMILES: COc1cncc(-c2cc(C)c3ncc(C(=O)N[C@H](C4CC4)C(F)(F)F)n3n2)c1

- activation at 0.1 µM: > 20%
- activation at 1 µM: > 20%
SMILES: Cc1cc(-c2sccc2C#N)nn2c(C(=O)N[C@H](C3CC3)C(F)(F)F)cnc12

- activation at 0.1 µM: 5 to 20%
- activation at 1 µM: > 20%
SMILES: Cc1cc(-c2ccc3ncn(C)c3c2)nn2c(C(=O)N[C@@H](C3CC3)C(F)(F)F)cnc12 [(S)—N-(1-Cyclopropyl-2,2,2-trifluoroethyl)-8-methyl-6-(1-methyl-1H-benzo[d]imidazol-6-yl)imidazo[1,2-b]pyridazine-3-carboxamide]

- activation at 0.1 µM: > 20%
- activation at 1 µM: > 20%
SMILES: Cc1cc(N2CCCC(F)(F)C2)nn2c(C(=O)N[C@H](C3CC3)C(F)(F)F)cnc12

- activation at 0.1 µM: > 20%
- activation at 1 µM: > 20%
SMILES: Cc1cc(-c2occc2C#N)nn2c(C(=O)NC(C3CC3)C(F)(F)F)cnc12 (stereo not drawn)

- activation at 0.1 µM: > 20%
- activation at 1 µM: > 20%
SMILES: COc1cccc(-c2cc(C)c3ncc(C(=O)NC(C4CC4)C(F)(F)F)n3n2)n1 (stereo not drawn)

- activation at 0.1 µM: > 20%
- activation at 1 µM: > 20%
SMILES: Cc1cc(-c2cccc(F)c2)nn2c(C(=O)NC(C)(C)C3CC3)ncc12

- activation at 0.1 µM: 5 to 20%
- activation at 1 µM: > 20%
SMILES: Cc1cc(-c2cncc(F)c2)nn2c(C(=O)NC(C3CC3)C(F)(F)F)cnc12 (stereo not drawn)

- activation at 0.1 µM: < 5%
- activation at 1 µM: > 20%
SMILES: Cc1cc(-c2cccnc2)nn2c(C(=O)NC(C3CC3)C(F)(F)F)cnc12 (stereo not drawn)
